Results from US5340821A, “Composition and method for treating Sjoegren syndrome disease” (Snow Brand Milk Products Co., Ltd., priority 1992, dated 1994).
Counter-ions that a name gives are not always drawn.

Legend:
[1] = tested on: Sjoegren syndrome disease; assay: Observation of the patient (Sjoegren syndrome disease); format: in vivo, human
Excerpt: (§1) Five subjects diagnosed to be suffering from a Sjoegren syndrome disease according to the diagnosis criteria made by the study team at the Ministry of Health and Welfare (M. Ofuji, Study Report Summary for 1977, the results for the year 1977 of Diagnostic criteria of Sjoegren's syndrome (Ministry of Health and Welfare's Sjoegren Investigational Research Group), M. Ofugi, Research Report of Ministry of Health and Welfare's specific disease Sjoegren Investigational Research Group in 1977, 3-6, 1978). To each subject was administered said hydrochloric acid addition salt of quinuclidine of formula (II) at a dose of 10 mg, three times a day, each time one hour before meal, for 4 weeks (the first course); 20 mg, three times a day, each time one hour before meal, for 4 weeks (the second course); and 30 mg, three times a day, each time one hour before meal, for 4 weeks (the third course). The Saxon test (Kohler P. F., Winter M. E., Arthritis Rheum, 28, 1128-1132 (1985)) for measuring the saliva secretion was performed before the start of the first course, and after the completion of the first, second, and third courses.

[2] = Toxicity Test (LD50, observation of mice for two weeks); parameters: species or system ICR (CD-1) mice; conditions: mouse, in vivo
Experimental: Groups of ICR (CD-1) male and female mice (age: 5 weeks, weight of male mice: 22.0-33.8 g, weight of female mice: 18.8-27.3 g), each consisting of eight mice, were used for the test. 2-methylspiro(1,3-oxathiolane-5,3')quinuclidine hydrochloride of formula (II) was orally, intravenously, or subcutaneously administered at different (high and low) doses. LD50 (50% lethal dose) was determined by the observation of mice for two weeks thereafter.

saliva secretion [3] = assay: Saliva secretion effects in dogs; format: in vivo; conditions: four weeks, 4 female beagle dogs
Experimental: (§2) 2-Methylspiro(1,3-oxathiolane-5,3')quinuclidine hydrochloride of formula (II), in amounts of 0, 0.5, 3, and 18 mg/kg, was orally administered to female beagle dogs (weight: 7.1-9.6 kg) of four groups, each consisting of four dogs, one time a day and for four weeks.

tear secretion = assay: Tear secretion effects in dogs; format: in vivo; conditions: four weeks, 4 female beagle dogs
Experimental: as §2

saliva secretion [4] = assay: Saliva secretion effects in patients suffering from a Sjoegren syndrome disease (Saxon test); format: in vivo, human
Excerpt: as §1

saliva secretion [5] = assay: Saliva secretion effects in human; format: in vivo; conditions: 10 tested subjects
Experimental: 2-Methylspiro(1,3-oxathiolane-5,3')quinuclidine hydrochloride of formula (II), in amounts of 5, 10, 20, 30, 40, 50, 60, and 70 mg, was orally administered to five men and five women, aged 20-50 years.

[6] = background statement; cited from earlier work

Compound: CC1OC2(CS1)CN1CCC2CC1 (stereo not shown) [2-methylspiro(1,3-oxathiolane-5,3')quinuclidine hydrochloride]
- Observation of the patient: Saliva secretion ([1]; subject 1): increased
- Observation of the patient: A dry feeling of oral cavity and irritation in the eyes ([1]; subject 2): improved
- Observation of the patient: The need for drinking water when taking food ([1]; subject 3): eliminated
- Observation of the patient: Incidence of being awaken due to dry mouth at midnight ([1]; subject 4): improved
- LD50 at 336 h ([2]; iv, female mice): 40.8 mg/kg
- LD50 at 336 h ([2]; iv, male mice): 45.2 mg/kg
- LD50 at 336 h ([2]; po, female mice): 167 mg/kg
- LD50 at 336 h ([2]; po, male mice): 139 mg/kg
- LD50 at 336 h ([2]; sc, Subcutaneous, female mice): 78.1 mg/kg
- LD50 at 336 h ([2]; sc, Subcutaneous, male mice): 65 mg/kg
- Number of animals secreted saliva (saliva secretion [3]; 0.5 mg/kg/day oral): 0 animals
- Number of animals secreted saliva (%) (saliva secretion [3]; 0.5 mg/kg/day oral): 0%
- Number of animals secreted saliva (saliva secretion [3]; 3.0 mg/kg/day oral): 3 animals
- Number of animals secreted saliva (%) (saliva secretion [3]; 3.0 mg/kg/day oral): 75%
- Number of animals secreted saliva (saliva secretion [3]; 18.0 mg/kg/day oral): 4 animals
- Number of animals secreted saliva (%) (saliva secretion [3]; 18.0 mg/kg/day oral): 100%
- Number of animals secreted tear (tear secretion; 0.5 mg/kg/day oral): 0 animals
- Number of animals secreted tear (%) (tear secretion; 0.5 mg/kg/day oral): 0%
- Number of animals secreted tear (tear secretion; 3.0 mg/kg/day oral): 1 animals
- Number of animals secreted tear (%) (tear secretion; 3.0 mg/kg/day oral): 25%
- Number of animals secreted tear (tear secretion; 18.0 mg/kg/day oral): 4 animals
- Number of animals secreted tear (%) (tear secretion; 18.0 mg/kg/day oral): 100%
- Ratio of secreted saliva to the value before the administration in the first course (saliva secretion [4]; subject 1, after first course (10 mg three times a day)): 1.66
- Amount of secreted saliva (saliva secretion [4]; subject 1, after first course (10 mg three times a day, 4 weeks), before 0.65 g): 1.08 g
- Ratio of secreted saliva to the value before the administration in the first course (saliva secretion [4]; subject 1, after second course (20 mg three times a day)): 3.15
- Amount of secreted saliva (saliva secretion [4]; subject 1, after second course (20 mg three times a day, 4 weeks), before 0.65 g): 2.05 g
- Ratio of secreted saliva to the value before the administration in the first course (saliva secretion [4]; subject 1, after third course (30 mg three times a day)): 6.00
- Amount of secreted saliva (saliva secretion [4]; subject 1, after third course (30 mg three times a day, 4 weeks), before 0.65 g): 3.90 g
- Ratio of secreted saliva to the value before the administration in the first course (saliva secretion [4]; subject 2, after first course (10 mg three times a day)): 1.70
- Amount of secreted saliva (saliva secretion [4]; subject 2, after first course (10 mg three times a day, 4 weeks), before 0.73 g): 1.24 g
- Ratio of secreted saliva to the value before the administration in the first course (saliva secretion [4]; subject 2, after second course (20 mg three times a day)): 3.48
- Amount of secreted saliva (saliva secretion [4]; subject 2, after second course (20 mg three times a day, 4 weeks), before 0.73 g): 2.54 g
- Ratio of secreted saliva to the value before the administration in the first course (saliva secretion [4]; subject 2, after third course (30 mg three times a day)): 6.16
- Amount of secreted saliva (saliva secretion [4]; subject 2, after third course (30 mg three times a day, 4 weeks), before 0.73 g): 4.50 g
- Ratio of secreted saliva to the value before the administration in the first course (saliva secretion [4]; subject 3, after first course (10 mg three times a day)): 1.91
- Amount of secreted saliva (saliva secretion [4]; subject 3, after first course (10 mg three times a day, 4 weeks), before 0.76 g): 1.45 g
- Ratio of secreted saliva to the value before the administration in the first course (saliva secretion [4]; subject 3, after second course (20 mg three times a day)): 2.05
- Amount of secreted saliva (saliva secretion [4]; subject 3, after second course (20 mg three times a day, 4 weeks), before 0.76 g): 1.56 g
- Ratio of secreted saliva to the value before the administration in the first course (saliva secretion [4]; subject 3, after third course (30 mg three times a day)): 4.80
- Amount of secreted saliva (saliva secretion [4]; subject 3, after third course (30 mg three times a day, 4 weeks), before 0.76 g): 3.65 g
- Ratio of secreted saliva to the value before the administration in the first course (saliva secretion [4]; subject 4, after first course (10 mg three times a day)): 1.51
- Amount of secreted saliva (saliva secretion [4]; subject 4, after first course (10 mg three times a day, 4 weeks), before 0.43 g): 0.65 g
- Ratio of secreted saliva to the value before the administration in the first course (saliva secretion [4]; subject 4, after second course (20 mg three times a day)): 3.80
- Amount of secreted saliva (saliva secretion [4]; subject 4, after second course (20 mg three times a day, 4 weeks), before 0.43 g): 1.63 g
- Ratio of secreted saliva to the value before the administration in the first course (saliva secretion [4]; subject 4, after third course (30 mg three times a day)): 6.72
- Amount of secreted saliva (saliva secretion [4]; subject 4, after third course (30 mg three times a day, 4 weeks), before 0.43 g): 2.89 g
- Ratio of secreted saliva to the value before the administration in the first course (saliva secretion [4]; subject 5, after first course (10 mg three times a day)): 1.31
- Amount of secreted saliva (saliva secretion [4]; subject 5, after first course (10 mg three times a day, 4 weeks), before 0.45 g): 0.59 g
- Ratio of secreted saliva to the value before the administration in the first course (saliva secretion [4]; subject 5, after second course (20 mg three times a day)): 2.16
- Amount of secreted saliva (saliva secretion [4]; subject 5, after second course (20 mg three times a day, 4 weeks), before 0.45 g): 0.97 g
- Ratio of secreted saliva to the value before the administration in the first course (saliva secretion [4]; subject 5, after third course (30 mg three times a day)): 3.27
- Amount of secreted saliva (saliva secretion [4]; subject 5, after third course (30 mg three times a day, 4 weeks), before 0.45 g): 1.47 g
- Subjects showing promoted saliva secretion (saliva secretion [5]; 5 mg oral): 0 subjects
- Subjects showing promoted saliva secretion (saliva secretion [5]; 10 mg oral): 0 subjects
- Subjects showing promoted saliva secretion (saliva secretion [5]; 20 mg oral): 2 subjects
- Subjects showing promoted saliva secretion (saliva secretion [5]; 30 mg oral): 8 subjects
- Subjects showing promoted saliva secretion (saliva secretion [5]; 40 mg oral): 10 subjects
- Subjects showing promoted saliva secretion (saliva secretion [5]; 50 mg oral): 10 subjects
- Subjects showing promoted saliva secretion (saliva secretion [5]; 60 mg oral): 10 subjects
- Subjects showing promoted saliva secretion (saliva secretion [5]; 70 mg oral): 10 subjects

Compound: CC(C[N+](C)(C)C)OC(N)=O (stereo not shown) [bethanechol]
- side effects [6]: comprehensive side effects such as headache, hot flush, palpitation, intrathoracic agony, nausea, emesis, diarrhea, abdominal discomfort, pyrosis, stomach discomfort, diaphoresis, and the like
